Data: ChEMBL document CHEMBL4261595, “Discovery of 3-(4-sulfamoylnaphthyl)pyrazolo[1,5-a]pyrimidines as potent and selective ALK2 inhibitors” (Bioorg Med Chem Lett, 2018)
Values after ≈ are worked out from the molar mass of the structure shown.

Key:
[1] = Volume of distribution at steady state in C57BL/6 mouse at 3 mg/kg, iv; type: ADME, organism-based; details: in vivo, read-out: Vdss
[2] = Clearance in C57BL/6 mouse plasma at 3 mg/kg, iv; type: ADME, organism-based
[3] = AUC (0 to infinity) in C57BL/6 mouse at 3 mg/kg, po; type: ADME, organism-based; parameters: dose 3 mg/kg, time infinity, route oral; details: in vivo
[4] = Half life in C57BL/6 mouse at 3 mg/kg, iv; type: ADME, organism-based; details: in vivo
[5] = physchem; details: aqueous, pH 7.4
[6] = Half life in C57BL/6 mouse at 3 mg/kg, po; type: ADME, organism-based; details: in vivo
[7] = Cmax in C57BL/6 mouse at 3 mg/kg, po; type: ADME, organism-based; parameters: dose 3 mg/kg, route oral; details: in vivo
[8] = Oral bioavailability in C57BL/6 mouse at 3 mg/kg; type: ADME, organism-based; details: in vivo
[9] = rat, microsomes
[10] = AUC (0 to infinity) in C57BL/6 mouse at 3 mg/kg, iv; type: ADME, organism-based; parameters: dose 3 mg/kg, time infinity, route intravenous; details: in vivo
[11] = Permeability of the compound by PAMPA; type: ADME; details: read-out: permeability

Row | SMILES | solubility [5] | t1/2 [9] | Papp [11] | further results
1 | CC(c1ccc(-c2cnc3c(-c4ccc(S(N)(=O)=O)c5ccccc45)cnn3c2)cc1)N1CCCC1 (stereo not given) | 7 µg/mL (≈ 14.1 µM) | 22.8 min | – | Vd [1]: 4.6 L/kg; clearance [2]: 16 mL/min/kg; AUC(0-inf) [3]: 782 ng·h/mL; half-life [4]: 210 min; half-life [6]: 258 min; Cmax [7]: 67 ng/mL; bioavailability [8]: 24%; AUC(0-inf) [10]: 3220 ng·h/mL
2 | CC(N)c1ccc(-c2cnc3c(-c4ccc(S(N)(=O)=O)c5ccccc45)cnn3c2)cc1 (stereo not given) | 7.6 µg/mL (≈ 17.1 µM) | – | – | –
3 | NS(=O)(=O)c1ccc(-c2cnn3cc(-c4ccc(OCCN5CCCCC5)nc4)cnc23)c2ccccc12 | < 1 µg/mL | 20.9 min | 365 ×10⁻⁶ cm/s | –
4 | CC(C)(CN1CCCCC1)Oc1ccc(-c2cnc3c(-c4ccc(S(N)(=O)=O)c5ccccc45)cnn3c2)cc1 | < 1 µg/mL | 6.1 min | – | –
5 | NS(=O)(=O)c1ccc(-c2cnn3cc(-c4ccc(CN5CCCC5)cc4)cnc23)c2ccccc12 | 8 µg/mL (≈ 16.5 µM) | 21.9 min | 467 ×10⁻⁶ cm/s | –
6 | NS(=O)(=O)c1ccc(-c2cnn3cc(-c4ccc(N5CCNCC5)nc4)cnc23)c2ccccc12 | 1.4 µg/mL (≈ 2.88 µM) | > 30 min | 8.3 ×10⁻⁶ cm/s | –
7 | NS(=O)(=O)c1ccc(-c2cnn3cc(-c4ccc(OCCN5CCCC5)cc4)cnc23)c2ccccc12 | 33 µg/mL (≈ 64.2 µM) | > 30 min | 317 ×10⁻⁶ cm/s | –
8 | NC1(c2ccc(-c3cnc4c(-c5ccc(S(N)(=O)=O)c6ccccc56)cnn4c3)cc2)CCC1 | < 1 µg/mL | – | – | –
9 | NS(=O)(=O)c1ccc(-c2cnn3cc(-c4ccc(C5CCNCC5)cc4)cnc23)c2ccccc12 | < 1 µg/mL | > 30 min | 78.6 ×10⁻⁶ cm/s | –
10 | CC(C)(N)c1ccc(-c2cnc3c(-c4ccc(S(N)(=O)=O)c5ccccc45)cnn3c2)cc1 | 10.6 µg/mL (≈ 23.2 µM) | > 30 min | 9.4 ×10⁻⁶ cm/s | –
11 | CN(C)CCOc1ccc(-c2cnc3c(-c4ccc(S(N)(=O)=O)c5ccccc45)cnn3c2)cn1 | < 1 µg/mL | 9.4 min | 8.8 ×10⁻⁶ cm/s | –
